Source: patent US20260242324A1, “FATTY ACID MIMETICS AS MODULATORS OF GPR40 AND/OR GPR120” (Trustees of Dartmouth College, priority 2023, published 2026)
Read-outs that look alike come from different tables or passages of the source.

Columns and labels:
GPR40 = target: T1, GPR40 (Homo sapiens, UniProt O14842); test: β-arrestin assay (PathHunter) for GPR40 agonism; assay type: cell-based; settings: for activity at GPR40 in heat map of % maximal efficacy: single dose 15 μM, FIG. 9A, compared to oleic acid at 15 μM; for GPR40 agonism / selectivity for GPR40 over GPR120 / EC50: dose-response; for GPR40 agonism / selectivity for GPR40 over GPR120: FIG. 9B; for potency at GPR40 relative to oleic acid: multiple of oleic acid potency; for EC50: PathHunter β-arrestin
T1 construct: beta-galactosidase enzyme fragment for EFC (ProLink-type tag); expressed in transfected cells
Method: (§1) In this example, compounds from Example 1 were assessed as functional ligands (agonists) to two oleic acid receptors (GPR40 and GPR120). […]

GPR120 [1] = target: T2, GPR120 (Homo sapiens, UniProt Q5NUL3); test: β-arrestin assay (PathHunter) for GPR120 agonism; assay type: cell-based; set-up: beta-galactosidase enzyme fragment for EFC (ProLink-type tag); expressed in transfected cells; settings: for EC50: PathHunter β-arrestin, dose-response; for agonist efficacy at GPR120: relative to oleic acid and GW9508; for activity at GPR120 in heat map of % maximal efficacy: single dose 15 μM, FIG. 9A, compared to oleic acid at 15 μM
T2 sequence (Q5NUL3 1-361): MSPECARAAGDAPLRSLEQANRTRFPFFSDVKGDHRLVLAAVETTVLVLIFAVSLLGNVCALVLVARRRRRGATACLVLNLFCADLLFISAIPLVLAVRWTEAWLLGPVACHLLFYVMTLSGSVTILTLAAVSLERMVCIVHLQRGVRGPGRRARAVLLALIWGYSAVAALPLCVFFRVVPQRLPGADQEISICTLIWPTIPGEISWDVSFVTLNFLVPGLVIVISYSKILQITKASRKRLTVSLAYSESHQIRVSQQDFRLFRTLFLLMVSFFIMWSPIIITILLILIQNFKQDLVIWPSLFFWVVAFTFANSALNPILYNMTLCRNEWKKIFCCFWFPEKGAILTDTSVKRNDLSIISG
Method: as §1

MIN6 cells = settings: reported, concentrations as low as; cited from earlier work
CHO-mGPR40 cells = target: T3, CHO-mGPR40 cells (Mus musculus, UniProt Q76JU9); settings: reported; read-out: EC50, stimulatory activity on CHO-mGPR40 cells; cited from earlier work
T3 construct: host or cells: CHO cells transfected with mGPR40

GPR120 [2] = target: T2, GPR120; settings: read-out: EC50 as agonist of GPR120; reported; cited from earlier work

T1 sequence (O14842 whole entry, the tested form may be a part): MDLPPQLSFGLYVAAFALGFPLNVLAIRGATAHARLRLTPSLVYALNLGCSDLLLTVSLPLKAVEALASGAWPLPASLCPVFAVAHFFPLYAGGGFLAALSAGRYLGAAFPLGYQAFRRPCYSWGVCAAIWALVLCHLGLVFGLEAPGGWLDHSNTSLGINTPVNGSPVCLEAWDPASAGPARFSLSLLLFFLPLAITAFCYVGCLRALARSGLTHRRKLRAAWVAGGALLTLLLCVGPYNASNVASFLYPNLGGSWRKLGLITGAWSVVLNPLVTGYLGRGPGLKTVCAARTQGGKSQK
T3 sequence (Q76JU9 whole entry): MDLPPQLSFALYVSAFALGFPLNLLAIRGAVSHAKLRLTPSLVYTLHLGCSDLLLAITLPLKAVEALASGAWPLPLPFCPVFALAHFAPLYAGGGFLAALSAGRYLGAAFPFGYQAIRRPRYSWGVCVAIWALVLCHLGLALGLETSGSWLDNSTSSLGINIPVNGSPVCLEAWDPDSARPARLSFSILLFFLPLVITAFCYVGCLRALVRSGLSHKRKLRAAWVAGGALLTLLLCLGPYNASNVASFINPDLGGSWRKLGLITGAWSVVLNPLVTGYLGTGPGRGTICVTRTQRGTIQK

| SMILES | activity at GPR40 in heat map of % maximal efficacy (GPR40) | GPR40 agonism (GPR40) | selectivity for GPR40 over GPR120 (GPR40) | potency at GPR40 relative to oleic acid (GPR40) | activity against GPR120 (GPR120 [1]) | EC50 (GPR120 [1]) [µM] | agonist efficacy at GPR120 (GPR120 [1]) | activity at GPR120 in heat map of % maximal efficacy (GPR120 [1]) | further results |
| --- | --- | --- | --- | --- | --- | --- | --- | --- | --- |
| CCCCCCCCCC/C=C(/C)C/C(C)=C/[C@H](C)CC(=O)O [Compound 1-A] | enriched for activity at GPR40 | – | – | – | – | – | – | – | – |
| CCCCCCCCC[C@@H](C)/C=C(/C)C/C(C)=C/[C@H](C)CC(=O)O [Compound 1-C] | enriched for activity at GPR40 | exceptionally selective and potent agonists of GPR40 | substantial selectivity over GPR120 | – | – | – | – | – | – |
| CCCCCCCCC[C@H](C)/C=C(/C)C/C(C)=C/[C@H](C)CC(=O)O [Compound 1-E] | enriched for activity at GPR40 | exceptionally selective and potent agonists of GPR40 | substantial selectivity over GPR120 | twelve times greater than oleic acid | – | – | – | – | – |
| CCCCCCCCC[C@H](C)/C=C(/C)C/C(C)=C/[C@@H](C)CC(=O)O [Compound 1-F] | – | exceptionally selective and potent agonists of GPR40 | substantial selectivity over GPR120 | – | – | – | – | – | – |
| CCCCCCC[C@@H](C)/C=C(/C)C/C(C)=C/[C@H](C)CCCC(=O)O [Compound 2-C] | – | effective agonists of GPR40 | – | approximately 6 fold | agonist activity against GPR120 | 1 to 7 | agonist efficacy at a fraction of what is observed with oleic acid and GW9508 | enriched for activity at GPR120 | – |
| CCCCCCC[C@@H](C)/C=C(/C)C/C(C)=C/[C@@H](C)CCCC(=O)O [Compound 2-D] | – | effective agonists of GPR40 | – | approximately 6 fold | – | 1 to 7 | agonist efficacy at a fraction of what is observed with oleic acid and GW9508 | enriched for activity at GPR120 | – |
| CCCCCCC[C@H](C)/C=C(/C)C/C(C)=C/[C@H](C)CCCC(=O)O [Compound 2-E] | – | effective agonists of GPR40 | – | approximately 6 fold | – | 1 to 7 | agonist efficacy at a fraction of what is observed with oleic acid and GW9508 | enriched for activity at GPR120 | selectivity for GPR120 (GPR120 [1]; GPR120 over GPR40): 5 fold; enhanced potency (GPR120 [1]; versus oleic acid or GW9508): 7-15 fold |
| CCC[C@@H](C)/C=C(/C)C/C(C)=C/[C@H](C)CCCCCCCC(=O)O [Compound 4-C] | – | – | – | – | inactive against GPR120 | – | – | – | – |
| O=C(O)CCc1ccc(NCc2cccc(Oc3ccccc3)c2)cc1 [GW9508, reference compound] | – | – | – | – | – | – | – | – | EC50 (GPR40): 1 µM |
| CCCCCCCC/C=C\CCCCCCCC(=O)O [oleic acid, reference compound] | – | – | – | – | agonist activity against GPR120 | 15 | – | – | concentration inducing insulin secretion in MIN6 cells (MIN6 cells): ≥ 1 µM; EC50 (CHO-mGPR40 cells): 2 µM; EC50 (GPR120 [2]): 12 µM; EC50 (GPR40): 37 µM; right shift of reporter assay results (GPR40; versus reported values, receptor not specified): ~ 20 fold |
